The values that follow come from patent US10966979B2 (Sandoz AG, priority 2017, dated 2021).

A short description of series [1]: Accelerated stress test at 40° C./75% RH (physical stability by powder X-ray diffraction and visual control of consistency). It is filed as physicochemical. On the procedure:
Powder X-ray diffraction was performed with a PANalytical X'Pert PRO diffractometer equipped with a theta/theta coupled goniometer in transmission geometry, Cu-Kalpha1,2 radiation (wavelength 0.15419 nm) with a focusing mirror and a solid state PIXcel detector. Diffractograms were recorded at a tube voltage of 45 kV and a tube current of 40 mA, applying a stepsize of 0.013° 2-Theta with 40 s per step (255 channels) in the angular range of 2° to 40° 2-Theta at ambient conditions.
Example 2: Accelerated Stress Test at 40° C./75% RH With Solid Dispersions Comprising Amorphous Elagolix Sodium and at Least One Silicon-Based Inorganic Compound in a 1:1 Weight Ratio vs. Neat Elagolix Sodium
The physical stability against moisture and temperature stress has been tested for different solid dispersions comprising amorphous elagolix sodium and at least one silicon-based inorganic compound and for neat amorphous elagolix. For this purpose, the solid dispersions were stored open at accelerated stress conditions of 40° C. and 75% RH for 1, 3 and 6 weeks respectively. The physical stability has been investigated by means of powder X-ray diffraction and the consistency of the samples was visually controlled.

Series [2] can be described thus: Behaviour of elagolix sodium upon moisture contact (hygroscopicity, deliquescence). Particulars: no further conditions given. It is filed as physicochemical. The source says:
Said properties require special care and precautionary measures such as a controlled atmosphere during pharmaceutical processing, which renders manufacturing cumbersome and expensive. […] Such formulations may negatively influence patients' compliance, in particular for elderly people having troubles swallowing.
As used herein the term “deliquescent” means the property of a solid form of a compound to readily absorb moisture form the surrounding atmosphere until it deliquesces and forms a solution upon storage for 14 days at 40° C., atmospheric pressure and 75% relative humidity.

Take `COc1cccc(-c2c(C)n(Cc3c(F)cccc3C(F)(F)F)c(=O)n(C[C@H](NCCCC(=O)O)c3ccccc3)c2=O)c1F` [elagolix Na, 4-[[(1R)-2-[5-(2-fluoro-3-methoxyphenyl)-3-[[2-fluoro-6-(trifluoromethyl)phenyl]methyl]-3,6-dihydro-4-methyl-2,6-dioxo-1(2H)-pyrimidinyl]-1-phenylethyl]amino]butanoic acid]: the “consistency / deliquescence during the stress test” value in series [1] (accelerated stress conditions of 40° C. and 75% RH, up to 6 weeks) was “deliquesced fairly quickly”. Further, the Initial sample entry in series [1] (solid state and consistency before storage, PXRD and visual control) is listed as “amorphous solid”. Moreover, the “1 week at 40° C./75% RH” value in series [1] (stored open, 1 week, 40° C., 75% RH, PXRD and visual control) is on record as “deliquescence”. Also, the entries for the “hygroscopicity / deliquescence upon moisture contact” value in series [2] (listed as elagolix sodium) and in series [2] (listed as neat amorphous elagolix sodium) were “highly hygroscopic” and “deliquesces fairly quickly”, respectively.
